Data as given in ChEMBL document CHEMBL3045663, “Synthesis and Activity of Novel Acaricidal/Insecticidal 2, 4-Diphenyl-1, 3-oxazolines” (J Pestic Sci, 2002).
In brackets after ≈: the same amount, converted by molar mass.

Legend:
Type in all cases: functional
Nephotettix cincticeps = test: Insecticidal activity against Nephotettix cincticeps (green rice leafhopper) in compound treated rice seedlings assessed as mortality at 500 ppm
Tetranychus urticae [1] = test: Acaricidal activity against Tetranychus urticae (two-spotted spider mite) in compound treated kidney bean leaf assessed as larvicidal activity
Plutella xylostella = test: Insecticidal activity against Plutella xylostella (diamondback moth) in compound treated radish leaf assessed as mortality at 500 ppm
Tetranychus urticae [2] = test: Acaricidal activity against Tetranychus urticae (two-spotted spider mite) in compound treated kidney bean leaf assessed as mortality of egg at 1000 ppm at 24 degC measured after 1 week; conditions: 168 h
Myzus persicae = test: Insecticidal activity against Myzus persicae (green peach aphid) in compound treated radish leaf assessed as mortality at 500 ppm

SMILES	mortality at 500 ppm (Nephotettix cincticeps) [%]	LC50 (Tetranychus urticae [1]) [µg/mL]	mortality at 500 ppm (Plutella xylostella) [%]	mortality at 1000 ppm (Tetranychus urticae [2]) [%]	mortality at 500 ppm (Myzus persicae) [%]
c1ccc(Oc2ccccc2C2=NC(c3ccccc3)CO2)cc1 (stereo not drawn)	0	100 (≈ 317 µM)	0	0	0
Fc1ccccc1C1=NC(c2ccccc2)CO1 (stereo not drawn)	10	10 (≈ 41.4 µM)	35	10	0
Clc1cccc(C2=NC(c3ccccc3)CO2)c1 (stereo not drawn)	0	100 (≈ 388 µM)	60	10	0
COc1ccccc1C1=NC(c2ccccc2)CO1 (stereo not drawn)	10	10 (≈ 39.5 µM)	10	0	0
Fc1cccc(F)c1C1=NCC(c2ccccc2)S1 (stereo not drawn)	0	100 (≈ 363 µM)	0	0	0
Clc1ccc(Cl)c(C2=NC(c3ccccc3)CO2)c1 (stereo not drawn)	0	100 (≈ 342 µM)	35	0	0
COc1cccc(C2=NC(c3ccccc3)CO2)c1 (stereo not drawn)	0	> 1000	0	0	0
Fc1cccc(F)c1-c1nc(-c2ccccc2)co1	10	100 (≈ 389 µM)	0	0	0
Fc1cccc(F)c1C1=NC(c2ccccc2)CO1 (stereo not drawn)	35	1 (≈ 3.86 µM)	0	0	100
Cc1cccc(C2=NC(c3ccccc3)CO2)c1 (stereo not drawn)	10	> 1000	0	0	0
CCSc1ccccc1C1=NC(c2ccccc2)CO1 (stereo not drawn)	10	100 (≈ 353 µM)	10	10	0
COc1ccc(C2=NC(c3ccccc3)CO2)cc1 (stereo not drawn)	10	100 (≈ 395 µM)	0	0	0
Cc1ccc(C2=NC(c3ccccc3)CO2)cc1 (stereo not drawn)	0	> 1000	0	0	0
Clc1ccccc1C1=NC(c2ccccc2)CO1 (stereo not drawn)	10	1 (≈ 3.88 µM)	35	10	0
CCOc1ccccc1C1=NC(c2ccccc2)CO1 (stereo not drawn)	0	> 1000	0	0	0
Clc1ccc(C2=NC(c3ccccc3)CO2)cc1 (stereo not drawn)	0	100 (≈ 388 µM)	60	0	0
Cc1ccccc1C1=NC(c2ccccc2)CO1 (stereo not drawn)	0	100 (≈ 421 µM)	60	60	60
CSc1ccccc1C1=NC(c2ccccc2)CO1 (stereo not drawn)	0	100 (≈ 371 µM)	35	0	0
FC(F)(F)c1ccccc1C1=NC(c2ccccc2)CO1 (stereo not drawn)	0	100 (≈ 343 µM)	35	0	10
Clc1cccc(Cl)c1C1=NC(c2ccccc2)CO1 (stereo not drawn)	0	1 (≈ 3.42 µM)	10	0	10
Brc1ccccc1C1=NC(c2ccccc2)CO1 (stereo not drawn)	0	0.1 (≈ 0.331 µM)	60	10	0
CCOc1cc(Br)ccc1C1COC(c2c(F)cccc2F)=N1 (stereo not drawn)	100	0.1 (≈ 0.262 µM)	10		0
CSc1ccc(C2COC(c3c(F)cccc3F)=N2)cc1 (stereo not drawn)	0	0.1 (≈ 0.327 µM)	0		100
CCCCCCCCCCCCc1ccc(C2COC(c3c(F)cccc3F)=N2)c(F)c1 (stereo not drawn)	0	0.01 (≈ 0.0224 µM)	100		0
CCCCCCCCOc1ccc(C2COC(c3c(F)cccc3F)=N2)cc1 (stereo not drawn)	0	< 0.001	60		85
CC(C)Oc1ccc(C2COC(c3c(F)cccc3F)=N2)cc1 (stereo not drawn)	0	0.001 (≈ 0.00315 µM)	0		100
CCCCCc1ccc(C2COC(c3c(F)cccc3F)=N2)c(OCC)c1 (stereo not drawn)	100	< 0.001	35		85

SMILES	mortality at 500 ppm (Nephotettix cincticeps) [%]	LC50 (Tetranychus urticae [1]) [µg/mL]	mortality at 500 ppm (Plutella xylostella) [%]	mortality at 1000 ppm (Tetranychus urticae [2]) [%]	mortality at 500 ppm (Myzus persicae) [%]
CCOc1cccc(C2COC(c3c(F)cccc3F)=N2)c1 (stereo not drawn)	0	1 (≈ 3.3 µM)	0		0
CCCCCCCc1ccc(C2COC(c3c(F)cccc3F)=N2)c(F)c1 (stereo not drawn)	0	< 0.001	100		100
CCCCCCOc1cc(C(C)(C)C)ccc1C1COC(c2c(F)cccc2F)=N1 (stereo not drawn)	60	0.1 (≈ 0.241 µM)	100		10
Cc1ccc(C2COC(c3c(F)cccc3F)=N2)cc1C (stereo not drawn)	85	1 (≈ 3.48 µM)	0		100
CCCCCCCCc1ccc(C2COC(c3c(F)cccc3F)=N2)c(OC)c1 (stereo not drawn)	0	0.01 (≈ 0.0249 µM)	85		100
Fc1cccc(F)c1C1=NC(c2ccc(Cl)cc2)CO1 (stereo not drawn)	60	0.001 (≈ 0.0034 µM)	0		0
CCCCCCCCCCCCc1ccc(C2COC(c3c(F)cccc3F)=N2)c(Cl)c1 (stereo not drawn)	0	0.1 (≈ 0.216 µM)	60		0
CN(C)c1ccc(C2COC(c3c(F)cccc3F)=N2)cc1 (stereo not drawn)	0	10 (≈ 33.1 µM)	0		85
Fc1cccc(C2COC(c3c(F)cccc3F)=N2)c1 (stereo not drawn)	60	1 (≈ 3.61 µM)	0		0
CCCCCCCCCCc1ccc(C2COC(c3c(F)cccc3F)=N2)cc1 (stereo not drawn)	0	< 0.001	100		85
Fc1cccc(F)c1C1=NC(c2ccc(OCC(F)(F)F)cc2)CO1 (stereo not drawn)	100	< 0.001	35		100
CC(C)c1ccc(C2COC(c3c(F)cccc3F)=N2)cc1 (stereo not drawn)	60	0.001 (≈ 0.00332 µM)	0		100
CCOc1cc(C(C)(C)C)ccc1C1COC(c2c(F)cccc2F)=N1 (stereo not drawn) [ETOXAZOLE]	100	0.001 (≈ 0.00278 µM)	100		100
CCc1cccc(C2COC(c3c(F)cccc3F)=N2)c1 (stereo not drawn)	60	10 (≈ 34.8 µM)	0		0
CCc1ccc(C2COC(c3c(F)cccc3F)=N2)c(F)c1 (stereo not drawn)	0	0.1 (≈ 0.328 µM)	0		0
C[Si](C)(C)c1ccc(C2COC(c3c(F)cccc3F)=N2)cc1 (stereo not drawn)	60	< 0.001	100		100
Fc1ccc(C2COC(c3c(F)cccc3F)=N2)c(Cl)c1 (stereo not drawn)	35	0.1 (≈ 0.321 µM)	0		100
CCCCCCCCCSc1ccc(C2COC(c3c(F)cccc3F)=N2)cc1 (stereo not drawn)	0	0.01 (≈ 0.0239 µM)	85		60
CCCCCCc1ccc(C2COC(c3c(F)cccc3F)=N2)c(Cl)c1 (stereo not drawn)	100	< 0.001	100		100
CCCCCCc1ccc(C2COC(c3c(F)cccc3F)=N2)cc1Cl (stereo not drawn)	0	0.1 (≈ 0.265 µM)	0		0
Fc1cccc(F)c1C1=NC(c2ccc(Cl)c(Cl)c2)CO1 (stereo not drawn)	0	0.1 (≈ 0.305 µM)	60		100
CCCCCCCCc1ccc(C2COC(c3c(F)cccc3F)=N2)c(F)c1 (stereo not drawn)	0	< 0.001	100		100
Fc1cccc(F)c1C1=NC(c2ccc(OC(F)(F)F)cc2)CO1 (stereo not drawn)	35	0.001 (≈ 0.00291 µM)	85		100
CCCOc1cc(C(C)(C)C)ccc1C1COC(c2c(F)cccc2F)=N1 (stereo not drawn)	60	0.001 (≈ 0.00268 µM)	85		100
COc1ccc(C2COC(c3c(F)cccc3F)=N2)cc1 (stereo not drawn)	10	1 (≈ 3.46 µM)	0		85
COc1cc(C(C)(C)C)ccc1C1COC(c2c(F)cccc2F)=N1 (stereo not drawn)	35	0.001 (≈ 0.0029 µM)	85		100
